Measurements taken from patent publication US20110224151A1, “Polymeric Micelle Composition for Treatment of Resistant Cancer and Preparation Method of the Same” (SAMYANG CORPORATION, priority 2008, published 2011).
In brackets after ≈: the same amount, converted by molar mass.

Test system: DLD-1 colon cancer cells
Assay: Inhibition of P-glycoprotein: paclitaxel cytotoxicity with and without cyclosporin
Format: cell-based, human
Details: for IC50: Homo sapiens

CC(=O)O[C@H]1C(=O)[C@@]2(C)[C@H]([C@H](OC(=O)c3ccccc3)[C@]3(O)C[C@H](OC(=O)[C@H](O)[C@@H](NC(=O)c4ccccc4)c4ccccc4)C(C)=C1C3(C)C)[C@]1(OC(C)=O)CO[C@@H]1C[C@@H]2O [paclitaxel]
decrease of IC50 with cyclosporin as compared to paclitaxel alone (1.88 μg/mL cyclosporin, DLD-1 cells): 15 times | IC50 (DLD-1, DLD-1 cells treated with 1.88 μg/mL cyclosporin): 0.011 µg/mL | IC50 (DLD-1, paclitaxel administered alone, DLD-1 cells): 0.16 µg/mL (≈ 0.187 µM)
